This is an account of results in ChEMBL document CHEMBL1139566, “Discovery of AICAR Tfase inhibitors that disrupt requisite enzyme dimerization” (Bioorg Med Chem Lett, 2005).

Active and inactive are the calls of the source. No cut-off for these calls is given here. Peptide text beside a SMILES is read from it. * marks the point of attachment. NHPhenethyl = c1ccc(CCN*)cc1; Bz = O=C(c1ccccc1)*

The target of assay [1] is T1, Bifunctional purine biosynthesis protein ATIC (Homo sapiens, UniProt P31939). Kind of assay: Average inhibition of AICAR formyltransferase at 25 uM and 50 uM concentration relative to cappsin 2; Inactive.
Target sequence in this assay (P31939 whole entry, looked up): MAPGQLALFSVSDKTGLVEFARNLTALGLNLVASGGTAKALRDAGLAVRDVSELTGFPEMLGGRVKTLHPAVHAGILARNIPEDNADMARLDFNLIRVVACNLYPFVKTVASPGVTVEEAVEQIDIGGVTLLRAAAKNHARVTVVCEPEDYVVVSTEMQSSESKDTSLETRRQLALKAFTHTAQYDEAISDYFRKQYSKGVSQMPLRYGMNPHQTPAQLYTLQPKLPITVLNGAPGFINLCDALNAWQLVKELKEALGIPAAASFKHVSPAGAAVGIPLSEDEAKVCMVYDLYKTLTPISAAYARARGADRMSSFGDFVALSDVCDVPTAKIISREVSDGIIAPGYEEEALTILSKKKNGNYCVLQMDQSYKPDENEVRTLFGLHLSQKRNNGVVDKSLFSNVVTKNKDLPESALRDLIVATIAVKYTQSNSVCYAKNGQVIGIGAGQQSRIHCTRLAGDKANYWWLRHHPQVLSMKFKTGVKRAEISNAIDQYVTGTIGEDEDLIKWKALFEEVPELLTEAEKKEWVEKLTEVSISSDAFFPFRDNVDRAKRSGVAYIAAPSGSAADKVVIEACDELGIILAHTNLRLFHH
In assay [2] the target is T1, Bifunctional purine biosynthesis protein ATIC. Nature of the assay: Inhibition constant against AICAR formyltransferase.
Target sequence in this assay (P31939 whole entry): as the sequence (P31939 whole entry, looked up) above

With `O=C(CNC(=O)CNC(=O)c1ccccc1)NCCc1ccccc1` (Bz-Gly-Gly-NHPhenethyl), the inhibition entry in assay [1] is “inactive”.
The term Ki denotes the equilibrium dissociation constant of an inhibitor or competing ligand from its target. A low value points to tighter binding. Take `COc1ccc(CNC(=O)CN(CC(=O)NCCc2ccccc2)C(=O)CNC(=O)c2cccc(I)c2)cc1`: in assay [2], the inhibitory constant (Ki) turned out to be 3.1 µM.
As to `CCCNC(=O)CNC(=O)CNC(=O)c1cccc(I)c1`, the inhibition result in assay [1] was “inactive”.
In assay [2], `O=C(CNC(=O)CNC(=O)c1cccc(I)c1)NCCc1ccccc1` displayed a Ki of 8 µM.
Take `Cc1cccc(C(=O)NCC(=O)NCC(=O)NCCc2ccccc2)c1`: in assay [1], the inhibition result was “inactive”.
Still for that read-out and setting: for `O=C(CNC(=O)CNC(=O)c1ccccc1I)NCCc1ccccc1` the value was “inactive”.
Same read-out and setting: for `CNC(=O)CNC(=O)CNC(=O)c1cccc(I)c1` the value was “inactive”; for `O=C(CNC(=O)CNC(=O)c1cccc([N+](=O)[O-])c1)NCCc1ccccc1`, “inactive”.
Take `COC(=O)CN(CC(=O)NCCc1ccccc1)C(=O)CNC(=O)c1cccc(I)c1`: the inhibition entry in assay [1] was “inactive”.
The same measure, in the same setting: for `CN(CC(=O)NCCc1ccccc1)C(=O)CNC(=O)c1cccc(I)c1` the value was “inactive”; for `O=C(CNC(=O)c1cccc(I)c1)NCC(=O)OCCc1ccccc1`, “inactive”.
Take `COc1cccc(C(=O)NCC(=O)NCC(=O)NCCc2ccccc2)c1`: the inhibition entry in assay [1] was “inactive”.
